Assays:
[1] = tested on: Mast/stem cell growth factor receptor Kit (Homo sapiens), P10721 [L576P]; conditions: Compound concentration 1000.0 nM
[2] = target: Beta-1 adrenergic receptor (Homo sapiens) (UniProt P08588); conditions: Compound concentration 10.0 uM
[3] = target: Serine/threonine-protein kinase 38 (Homo sapiens) (UniProt Q15208); conditions: Compound concentration 1000.0 nM
[4] = target: Angiopoietin-1 receptor (Homo sapiens) (UniProt Q02763); conditions: Compound concentration 1000.0 nM
[5] = tested on: Receptor-type tyrosine-protein kinase FLT3 (Homo sapiens), P36888 [D835Y]; conditions: Compound concentration 1000.0 nM
[6] = target: Cyclin-dependent kinase 14 (Homo sapiens) (UniProt O94921); conditions: Compound concentration 1000.0 nM
[7] = target: SRSF protein kinase 2 (Homo sapiens) (UniProt P78362); conditions: Compound concentration 1000.0 nM
[8] = target: Mitogen-activated protein kinase kinase kinase 15 (Homo sapiens) (UniProt Q6ZN16); conditions: Compound concentration 1000.0 nM
[9] = target: Epithelial discoidin domain-containing receptor 1 (Homo sapiens) (UniProt Q08345); conditions: Compound concentration 1000.0 nM
Epithelial discoidin domain-containing receptor 1 (Homo sapiens), sequence (Q08345 whole entry, the tested form may be a part, canonical isoform): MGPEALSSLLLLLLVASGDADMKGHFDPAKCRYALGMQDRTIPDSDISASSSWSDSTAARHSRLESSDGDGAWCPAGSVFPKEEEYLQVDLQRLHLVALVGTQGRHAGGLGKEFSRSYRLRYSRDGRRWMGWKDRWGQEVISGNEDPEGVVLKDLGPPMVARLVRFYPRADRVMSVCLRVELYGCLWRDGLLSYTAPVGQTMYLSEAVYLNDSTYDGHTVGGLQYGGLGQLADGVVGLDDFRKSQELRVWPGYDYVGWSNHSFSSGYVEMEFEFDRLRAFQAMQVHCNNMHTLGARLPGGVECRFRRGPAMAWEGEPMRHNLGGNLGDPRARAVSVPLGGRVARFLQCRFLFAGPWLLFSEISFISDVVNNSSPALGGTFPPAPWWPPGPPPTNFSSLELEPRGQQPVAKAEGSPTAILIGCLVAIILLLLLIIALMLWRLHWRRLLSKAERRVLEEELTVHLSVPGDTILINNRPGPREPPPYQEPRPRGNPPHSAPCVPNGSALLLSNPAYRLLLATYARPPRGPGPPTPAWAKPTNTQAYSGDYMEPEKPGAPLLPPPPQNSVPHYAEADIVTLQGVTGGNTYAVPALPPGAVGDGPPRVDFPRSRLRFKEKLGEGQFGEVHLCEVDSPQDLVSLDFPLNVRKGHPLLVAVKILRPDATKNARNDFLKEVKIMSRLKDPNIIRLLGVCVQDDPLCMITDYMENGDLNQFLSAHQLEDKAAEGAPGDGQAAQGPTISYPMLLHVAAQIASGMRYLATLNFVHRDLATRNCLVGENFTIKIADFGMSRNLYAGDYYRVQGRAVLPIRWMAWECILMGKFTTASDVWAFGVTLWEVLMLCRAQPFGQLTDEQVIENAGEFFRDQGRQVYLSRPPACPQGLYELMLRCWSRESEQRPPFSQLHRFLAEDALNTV

[10] = tested on: Phosphatidylinositol 4,5-bisphosphate 3-kinase catalytic subunit alpha isoform (Homo sapiens), P42336 [E542K]; conditions: Compound concentration 1000.0 nM
[11] = target: Serine/threonine-protein kinase PAK 2 (Homo sapiens) (UniProt Q13177); conditions: Compound concentration 1000.0 nM
[12] = tested on: Phosphatidylinositol 4,5-bisphosphate 3-kinase catalytic subunit alpha isoform (Homo sapiens), P42336 [Q546K]; conditions: Compound concentration 1000.0 nM
[13] = target: Phosphatidylinositol 4-phosphate 3-kinase C2 domain-containing subunit beta (Homo sapiens) (UniProt O00750); conditions: Compound concentration 1000.0 nM
[14] = target: Serine/threonine-protein kinase Nek4 (Homo sapiens) (UniProt P51957); conditions: Compound concentration 1000.0 nM
Serine/threonine-protein kinase Nek4 (Homo sapiens), sequence (P51957 whole entry, looked up): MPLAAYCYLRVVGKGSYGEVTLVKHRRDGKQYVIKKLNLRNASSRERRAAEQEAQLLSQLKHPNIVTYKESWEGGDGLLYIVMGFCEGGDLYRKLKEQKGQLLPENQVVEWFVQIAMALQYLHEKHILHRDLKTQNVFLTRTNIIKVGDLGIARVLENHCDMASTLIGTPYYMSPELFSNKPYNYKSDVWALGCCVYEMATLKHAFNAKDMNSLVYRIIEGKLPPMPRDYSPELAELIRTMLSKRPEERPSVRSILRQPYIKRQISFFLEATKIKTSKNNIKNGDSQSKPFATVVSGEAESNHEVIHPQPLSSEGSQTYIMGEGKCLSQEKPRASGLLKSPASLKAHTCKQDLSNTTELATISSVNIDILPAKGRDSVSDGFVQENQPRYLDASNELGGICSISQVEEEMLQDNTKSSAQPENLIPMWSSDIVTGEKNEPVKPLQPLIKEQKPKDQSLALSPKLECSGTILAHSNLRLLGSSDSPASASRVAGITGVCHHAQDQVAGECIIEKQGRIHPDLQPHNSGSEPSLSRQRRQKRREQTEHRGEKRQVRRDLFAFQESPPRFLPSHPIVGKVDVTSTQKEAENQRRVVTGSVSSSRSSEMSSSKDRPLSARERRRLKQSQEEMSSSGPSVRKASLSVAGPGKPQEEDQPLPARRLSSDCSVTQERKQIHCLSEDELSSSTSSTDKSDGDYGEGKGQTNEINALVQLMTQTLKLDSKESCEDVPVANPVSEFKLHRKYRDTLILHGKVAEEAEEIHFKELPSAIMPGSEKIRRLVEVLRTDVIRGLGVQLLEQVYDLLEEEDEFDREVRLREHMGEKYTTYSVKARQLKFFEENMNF

[15] = target: Casein kinase II subunit alpha (Homo sapiens) (UniProt P68400); conditions: Compound concentration 1000.0 nM
[16] = target: MAP/microtubule affinity-regulating kinase 4 (Homo sapiens) (UniProt Q96L34); conditions: Compound concentration 1000.0 nM
[17] = target: RAC-alpha serine/threonine-protein kinase (Homo sapiens) (UniProt P31749); conditions: Compound concentration 1000.0 nM
[18] = target: Ephrin type-A receptor 5 (Homo sapiens) (UniProt P54756); conditions: Compound concentration 1000.0 nM
[19] = target: Misshapen-like kinase 1 (Homo sapiens) (UniProt Q8N4C8); conditions: Compound concentration 1000.0 nM
[20] = target: Serine/threonine-protein kinase SBK1 (Homo sapiens) (UniProt Q52WX2); conditions: Compound concentration 1000.0 nM
[21] = target: Tyrosine-protein kinase JAK1 (Homo sapiens) (UniProt P23458); conditions: Compound concentration 1000.0 nM
Tyrosine-protein kinase JAK1 (Homo sapiens), sequence (P23458 whole entry): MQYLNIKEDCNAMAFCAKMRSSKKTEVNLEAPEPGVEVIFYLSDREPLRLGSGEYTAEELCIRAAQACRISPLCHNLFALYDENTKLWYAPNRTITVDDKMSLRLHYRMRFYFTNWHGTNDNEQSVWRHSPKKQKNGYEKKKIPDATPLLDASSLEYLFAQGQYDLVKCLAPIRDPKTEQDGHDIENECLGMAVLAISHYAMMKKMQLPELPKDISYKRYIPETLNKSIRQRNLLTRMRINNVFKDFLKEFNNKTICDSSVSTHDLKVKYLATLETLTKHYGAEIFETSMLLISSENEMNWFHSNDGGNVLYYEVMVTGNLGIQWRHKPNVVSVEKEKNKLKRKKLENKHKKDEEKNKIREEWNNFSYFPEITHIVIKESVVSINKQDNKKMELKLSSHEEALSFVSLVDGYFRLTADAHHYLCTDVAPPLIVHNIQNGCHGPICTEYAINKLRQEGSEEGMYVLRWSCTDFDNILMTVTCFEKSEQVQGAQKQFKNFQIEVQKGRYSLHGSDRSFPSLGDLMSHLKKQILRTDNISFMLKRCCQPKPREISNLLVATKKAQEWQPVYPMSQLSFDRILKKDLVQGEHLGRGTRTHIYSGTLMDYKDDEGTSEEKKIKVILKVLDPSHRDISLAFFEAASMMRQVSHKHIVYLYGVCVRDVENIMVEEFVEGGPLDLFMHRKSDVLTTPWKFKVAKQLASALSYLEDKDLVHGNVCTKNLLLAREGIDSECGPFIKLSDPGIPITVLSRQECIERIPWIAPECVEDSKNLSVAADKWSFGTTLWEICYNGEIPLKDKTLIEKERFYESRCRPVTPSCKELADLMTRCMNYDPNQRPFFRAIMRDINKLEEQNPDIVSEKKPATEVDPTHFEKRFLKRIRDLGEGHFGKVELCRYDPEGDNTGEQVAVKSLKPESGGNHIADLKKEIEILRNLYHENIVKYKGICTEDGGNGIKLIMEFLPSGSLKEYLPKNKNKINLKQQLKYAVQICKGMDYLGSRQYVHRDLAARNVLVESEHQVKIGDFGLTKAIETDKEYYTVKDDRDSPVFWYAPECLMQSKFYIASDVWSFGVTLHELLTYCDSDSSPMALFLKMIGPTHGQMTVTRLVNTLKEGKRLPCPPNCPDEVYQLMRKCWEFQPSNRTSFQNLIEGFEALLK

[22] = target: Serine/threonine-protein kinase TAO3 (Homo sapiens) (UniProt Q9H2K8); conditions: Compound concentration 1000.0 nM
[23] = tested on: Mast/stem cell growth factor receptor Kit (Homo sapiens), P10721 [D816V]; conditions: Compound concentration 1000.0 nM
[24] = target: Tyrosine-protein kinase JAK1 (Homo sapiens) (UniProt P23458); conditions: Compound concentration 1000.0 nM; remark: listed apart in the source
[25] = target: Interleukin-1 receptor-associated kinase 4 (Homo sapiens) (UniProt Q9NWZ3); conditions: Compound concentration 1000.0 nM
[26] = target: Histamine H4 receptor (Homo sapiens, UniProt Q9H3N8); conditions: Compound concentration 10.0 uM
[27] = target: Calcium/calmodulin-dependent protein kinase type 1 (Homo sapiens) (UniProt Q14012); conditions: Compound concentration 1000.0 nM
Calcium/calmodulin-dependent protein kinase type 1 (Homo sapiens), sequence (Q14012 whole entry, looked up, the tested form may be a part): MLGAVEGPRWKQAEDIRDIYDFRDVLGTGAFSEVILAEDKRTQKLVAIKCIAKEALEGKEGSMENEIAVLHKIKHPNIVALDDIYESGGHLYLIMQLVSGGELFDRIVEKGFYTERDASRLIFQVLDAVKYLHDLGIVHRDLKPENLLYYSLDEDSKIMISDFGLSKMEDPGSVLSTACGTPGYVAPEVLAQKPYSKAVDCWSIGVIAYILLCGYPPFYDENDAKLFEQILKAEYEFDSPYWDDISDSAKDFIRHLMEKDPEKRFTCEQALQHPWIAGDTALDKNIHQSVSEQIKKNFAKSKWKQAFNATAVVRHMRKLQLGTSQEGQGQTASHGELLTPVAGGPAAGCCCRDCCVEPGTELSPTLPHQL

[28] = target: Ankyrin repeat and protein kinase domain-containing protein 1 (Homo sapiens) (UniProt Q8NFD2); conditions: Compound concentration 1000.0 nM
[29] = target: Phosphatidylinositol 4-phosphate 5-kinase type-1 gamma (Homo sapiens) (UniProt O60331); conditions: Compound concentration 1000.0 nM
[30] = tested on: Epidermal growth factor receptor (Homo sapiens), P00533 [L858R,T790M]; conditions: Compound concentration 1000.0 nM
[31] = target: Serine/threonine-protein kinase VRK2 (Homo sapiens) (UniProt Q86Y07); conditions: Compound concentration 1000.0 nM
[32] = target: Sodium-dependent dopamine transporter (Homo sapiens) (UniProt Q01959); conditions: Compound concentration 10.0 uM
[33] = target: Ephrin type-A receptor 1 (Homo sapiens) (UniProt P21709); conditions: Compound concentration 1000.0 nM
[34] = target: Mitogen-activated protein kinase kinase kinase 10 (Homo sapiens) (UniProt Q02779); conditions: Compound concentration 1000.0 nM
[35] = target: Ephrin type-B receptor 2 (Homo sapiens) (UniProt P29323); conditions: Compound concentration 1000.0 nM
Ephrin type-B receptor 2 (Homo sapiens), sequence (P29323 whole entry): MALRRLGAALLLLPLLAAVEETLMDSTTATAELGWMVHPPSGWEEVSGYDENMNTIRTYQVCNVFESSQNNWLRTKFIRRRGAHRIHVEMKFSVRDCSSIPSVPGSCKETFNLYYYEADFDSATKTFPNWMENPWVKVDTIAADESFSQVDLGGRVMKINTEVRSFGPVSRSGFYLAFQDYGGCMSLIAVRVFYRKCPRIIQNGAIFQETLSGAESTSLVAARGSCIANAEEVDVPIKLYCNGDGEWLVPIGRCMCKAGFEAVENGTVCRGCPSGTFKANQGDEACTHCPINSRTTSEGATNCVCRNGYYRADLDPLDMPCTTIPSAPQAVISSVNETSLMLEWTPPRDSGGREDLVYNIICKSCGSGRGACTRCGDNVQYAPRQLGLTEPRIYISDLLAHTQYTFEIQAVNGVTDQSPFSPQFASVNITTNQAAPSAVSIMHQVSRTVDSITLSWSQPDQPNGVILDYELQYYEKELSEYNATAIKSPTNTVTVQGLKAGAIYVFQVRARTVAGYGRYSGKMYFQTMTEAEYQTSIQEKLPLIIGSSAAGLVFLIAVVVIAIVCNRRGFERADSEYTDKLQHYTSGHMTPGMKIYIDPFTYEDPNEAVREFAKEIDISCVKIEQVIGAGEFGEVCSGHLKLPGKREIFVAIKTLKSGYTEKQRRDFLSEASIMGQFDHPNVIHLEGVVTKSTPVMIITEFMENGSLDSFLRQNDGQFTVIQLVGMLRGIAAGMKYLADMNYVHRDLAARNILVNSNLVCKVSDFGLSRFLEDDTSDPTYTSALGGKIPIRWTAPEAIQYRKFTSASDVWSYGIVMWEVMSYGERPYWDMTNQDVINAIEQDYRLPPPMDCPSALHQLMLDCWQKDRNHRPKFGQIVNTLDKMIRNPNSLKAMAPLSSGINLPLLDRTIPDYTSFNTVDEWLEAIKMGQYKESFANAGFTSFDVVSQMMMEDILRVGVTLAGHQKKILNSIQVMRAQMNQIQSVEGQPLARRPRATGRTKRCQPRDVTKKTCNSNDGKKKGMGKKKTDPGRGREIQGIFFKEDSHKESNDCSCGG

[36] = target: Beta-3 adrenergic receptor (Homo sapiens) (UniProt P13945); conditions: Compound concentration 10.0 uM
[37] = tested on: Receptor-type tyrosine-protein kinase FLT3 (Homo sapiens), P36888 [D835H]; conditions: Compound concentration 1000.0 nM
[38] = target: Beta-adrenergic receptor kinase 1 (Homo sapiens) (UniProt P25098); conditions: Compound concentration 1000.0 nM
[39] = target: Cyclin-dependent kinase 7 (Homo sapiens) (UniProt P50613); conditions: Compound concentration 1000.0 nM
[40] = target: Receptor tyrosine-protein kinase erbB-3 (Homo sapiens) (UniProt P21860); conditions: Compound concentration 1000.0 nM
[41] = target: Rhodopsin kinase GRK7 (Homo sapiens) (UniProt Q8WTQ7); conditions: Compound concentration 1000.0 nM
Rhodopsin kinase GRK7 (Homo sapiens), sequence (Q8WTQ7 whole entry): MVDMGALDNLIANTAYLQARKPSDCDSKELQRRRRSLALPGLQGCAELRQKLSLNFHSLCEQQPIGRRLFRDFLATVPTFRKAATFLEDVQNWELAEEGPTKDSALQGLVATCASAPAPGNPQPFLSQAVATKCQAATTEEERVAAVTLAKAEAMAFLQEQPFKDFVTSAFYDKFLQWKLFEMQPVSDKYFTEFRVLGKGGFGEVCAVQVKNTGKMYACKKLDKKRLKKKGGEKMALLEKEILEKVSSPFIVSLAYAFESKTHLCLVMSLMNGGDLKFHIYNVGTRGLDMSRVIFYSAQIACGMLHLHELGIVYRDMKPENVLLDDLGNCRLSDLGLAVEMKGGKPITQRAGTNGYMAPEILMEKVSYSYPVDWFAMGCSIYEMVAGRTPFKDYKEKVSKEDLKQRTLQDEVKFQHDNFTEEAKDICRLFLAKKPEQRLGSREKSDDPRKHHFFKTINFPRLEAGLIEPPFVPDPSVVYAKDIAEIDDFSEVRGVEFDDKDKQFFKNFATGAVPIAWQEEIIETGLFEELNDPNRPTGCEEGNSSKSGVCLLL

[42] = target: Phosphatidylinositol 3-kinase catalytic subunit type 3 (Homo sapiens) (UniProt Q8NEB9); conditions: Compound concentration 1000.0 nM
[43] = target: Serine/threonine-protein kinase SIK2 (Homo sapiens) (UniProt Q9H0K1); conditions: Compound concentration 1000.0 nM
[44] = target: Death-associated protein kinase 1 (Homo sapiens) (UniProt P53355); conditions: Compound concentration 1000.0 nM
[45] = target: Serine/threonine-protein kinase NIM1 (Homo sapiens) (UniProt Q8IY84); conditions: Compound concentration 1000.0 nM

CCC(=O)N[C@@H]1CC[C@H](C(=O)N(C)c2ccc(-c3nc4ccccc4o3)cc2)C1 [BI 99990]
residual activity [1]: 100%
inhibition [2]: -4.55%
residual activity [3]: 80%
residual activity [4]: 82%
residual activity [5]: 100%
residual activity [6]: 100%
residual activity [7]: 100%
residual activity [8]: 100%
residual activity [9]: 100%
residual activity [10]: 84%
residual activity [11]: 86%
residual activity [12]: 100%
residual activity [13]: 70%
residual activity [14]: 95%
residual activity [15]: 98%
residual activity [16]: 82%
residual activity [17]: 100%
residual activity [18]: 100%
residual activity [19]: 96%
residual activity [20]: 100%
residual activity [21]: 88%
residual activity [22]: 87%
residual activity [23]: 89%
residual activity [24]: 100%
residual activity [25]: 100%
inhibition [26]: 55.3%
residual activity [27]: 100%
residual activity [28]: 100%
residual activity [29]: 100%
residual activity [30]: 100%
residual activity [31]: 100%
inhibition [32]: 23.3%
residual activity [33]: 87%
residual activity [34]: 78%
residual activity [35]: 82%
inhibition [36]: -2.82%
residual activity [37]: 100%
residual activity [38]: 100%
residual activity [39]: 85%
residual activity [40]: 100%
residual activity [41]: 93%
residual activity [42]: 100%
residual activity [43]: 100%
residual activity [44]: 100%
residual activity [45]: 99%

CCC(=O)N[C@H]1CC[C@@H](C(=O)N(C)c2ccc(-c3nc4ccccc4o3)cc2)C1 [BI 99179]
residual activity [1]: 61%
inhibition [2]: -4.07%
residual activity [3]: 77%
residual activity [4]: 85%
residual activity [5]: 100%
residual activity [6]: 92%
residual activity [7]: 61%
residual activity [8]: 100%
residual activity [9]: 100%
residual activity [10]: 77%
residual activity [11]: 100%
residual activity [12]: 91%
residual activity [13]: 93%
residual activity [14]: 99%
residual activity [15]: 74%
residual activity [16]: 100%
residual activity [17]: 97%
residual activity [18]: 78%
residual activity [19]: 89%
residual activity [20]: 94%
residual activity [21]: 77%
residual activity [22]: 70%
residual activity [23]: 86%
residual activity [24]: 100%
residual activity [25]: 87%
inhibition [26]: 39.3%
residual activity [27]: 95%
residual activity [28]: 66%
residual activity [29]: 100%
residual activity [30]: 100%
residual activity [31]: 90%
inhibition [32]: 77.3%
residual activity [33]: 100%
residual activity [34]: 91%
residual activity [35]: 100%
inhibition [36]: 34.9%
residual activity [37]: 95%
residual activity [38]: 66%
residual activity [39]: 79%
residual activity [40]: 100%
residual activity [41]: 82%
residual activity [42]: 89%
residual activity [43]: 78%
residual activity [44]: 96%
residual activity [45]: 88%
